For one assay, the target named is T1, hCA II (Homo sapiens, UniProt P00918).
T1 construct: made in house
In words: stopped-flow CO2 hydrase assay, hCA II. It counts as biochemical. The text has this: . The structure-activity relationship is discussed separately for the two compound subsets. Another code pattern is included for the MTDLs in Table 1, which indicates the derivative CAI type (sulphonamide, S or coumarin, C) and the number of atoms in the spacers connecting either berberine and the triazole (carbon atoms) or the triazole and the benzenesulfonamide/coumarin scaffolds (carbon or oxygen atoms).
(§1) An Applied Photophysics stopped-flow instrument has been used for assaying the CA-catalysed CO2 hydration activity, as reported earlier. The enzyme concentrations were in the range 5–12 nM. All hCA isoforms were recombinant proteins, being obtained in-house as reported earlier.

The subject of a further assay is GQ structures. Kind of assay: BG4 immunofluorescence of GQ foci, HeLa cells in normoxia. The format is cell-based. Particulars: 24 h, 35.0 µM S-4,0, 40.0 µM C-4,2, 37.5 µM C-5,2, 2 µM RHPS4, over DMSO. The text has this:
After measuring the viability of HeLa cells upon treatment with the newly synthesised MTDLs mentioned above, we probed the capability of the three most cytotoxic ones (S-4,0, C-4,2, and C-5,2) to affect the formation of GQ structures by immunofluorescence (IF) microscopy, using the BG4 antibody that selectively recognises the GQ structures. As it can be noticed in Figure 6, the fluorescence intensity of the total number of GQ foci increased by around 30% after treatment with both the coumarin derivative C-4,2 and the reference GQ binder RHPS4, whereas it was not affected by S-4,0 and C-5,2. […] On the contrary, the levels of GQ structures were influenced neither by the treatment with the sulphonamide S-4,0 nor by the coumarin C-5,2, despite their ability to thermally stabilise some GQ-forming sequences in vitro.
Figure 6. (A) Representative fields showing G4 foci formation detected by immunofluorescence in HeLa cells treated for 24 h with 35.0 µM S-4,0, 40.0 µM C-4,2, and 37.5 µM C-5,2 or an equivalent amount of vehicle (0.1% DMSO). As a positive control, cells were treated with 2 µM RHPS4 (a well-established GQ ligand)[68] for 24 h. Scale bar: 10 µm. Upper panels: the merged channels of BG4-stained GQ structures (magenta) and Hoechst-counterstained nuclei (grey) are reported. Lower panels: enlargements from the pictures in the upper panels. (B) Quantitative analysis of the fluorescence intensity of the total number of GQ foci. An average of 50 cells were screened for each condition and the results are expressed as a fold change of fluorescence intensity (anti-GQ signal) over the negative control (DMSO). Histograms show the mean ± SD of three independent experiments. The statistical significance was calculated using a one-way ANOVA test on GraphPad Prism 8.0.2 (ns: not significant, **: p < 0.01).
For the IF experiments in the presence of normal oxygen levels, HeLa cells were seeded on sterile coverslips, in a 24-well plate, at a density of 90,000 cells per well, and incubated overnight. Then, cells were treated with a sublethal concentration of each investigated MTDL or an equivalent amount of vehicle (0.1% DMSO), for 24 h. As positive control, cells were exposed for 24 h to 2 µM RHPS4. As regards the IF experiments under hypoxic conditions, HeLa were seeded on sterile coverslips, in a 24-well plate, at a density of 50,000 cells per well, and incubated overnight. […] From there, the cellular and nuclear foci were segmented, and their number or fluorescence intensity was quantified by using the Image Analysis package of ZEISS ZEN 3.1 software.

The next assay deals with T2, hCA I (Homo sapiens, UniProt P00915).
T2 construct: made in house
T2 sequence (P00915 whole entry): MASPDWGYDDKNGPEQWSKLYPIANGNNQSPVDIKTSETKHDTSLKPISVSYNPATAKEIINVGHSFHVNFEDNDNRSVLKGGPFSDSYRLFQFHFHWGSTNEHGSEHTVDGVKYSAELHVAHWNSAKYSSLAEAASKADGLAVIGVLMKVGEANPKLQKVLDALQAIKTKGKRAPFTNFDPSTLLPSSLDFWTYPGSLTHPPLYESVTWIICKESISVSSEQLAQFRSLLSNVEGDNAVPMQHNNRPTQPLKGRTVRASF
Kind of assay: stopped-flow CO2 hydrase assay, hCA I. The format is biochemical. On the procedure:
as §1

A further assay concerns F-c-Kit1-T GQ. In words: FRET melting competition experiments. The format is binding. The settings on record: 2 molar equiv ligand; for ΔT1/2 F-c-Kit1-T + Hairpin (1:15): 15 molar equiv unlabelled Hairpin; for ΔT1/2 F-c-Kit1-T + Hairpin (1:50): 50 molar equiv unlabelled Hairpin; for ΔT1/2 F-c-Kit1-T: no competitor. The text has this:
FRET melting analysis was used to further estimate the GQ over duplex selectivity of the selected compounds[53]. The GQ-forming oligonucleotide c-Kit1 labelled with FAM and TAMRA (F-c-Kit1-T) was employed because, among the parallel GQs used in this study (c-Kit1 and c-Myc), it was the only one with a lower T1/2 than the hairpin DNA duplex competitor (Hairpin), thus allowing proper estimation of the GQ-stabilising properties of the ligands in the presence of a large excess of the unlabelled (non-fluorescent) competitor. […] The sulphonamide S-3,2 was also considered since the crystal structure of such MTDL in complex with Tel23 was successfully obtained. Results of these experiments (Figure S9, Supporting Information and Table 3) confirmed that these compounds are efficient GQ stabilisers.
Measurements were carried out on an FP-8300 spectrofluorometer equipped with a Peltier temperature controller system (PCT-818). The dual-labelled GQ-forming FAM-[d([…])]-TAMRA sequence (F-c-Kit1-T), supplied by biomers.net GmbH (Ulm, Germany), was used for the experiments without further purification. […] The experiments were carried out in sealed quartz cuvettes with a path length of 1 cm, by using 0.2 μM GQ-forming oligonucleotide without or with 0.4 μM of each compound, and the unlabelled competitor (Hairpin) at 0, 3, and 10 μM final concentrations. FRET melting experiments were performed in the range 15–90 °C, with 0.2 °C/min heating rate, by monitoring the emission of FAM at 520 nm (upon excitation at 492 nm). Both excitation and emission slits were set to 5 nm. The emission intensity of FAM was then normalised between 0 and 1. Fluorescence emission spectra were acquired before (at 15 °C) and after (at 90 °C) the melting assay, in the range 500–650 nm, with a 100 nm/s scan speed. Data analysis was performed using OriginPro 2021 software.

Setting [1] is: coumarins, inhibitor-enzyme incubation 6 h.
Setting [2] is: sulphonamides, inhibitor-enzyme incubation 15 min, mean ± SEM of three assays.

Bounds are passed on as bounds.

The Ki is a dissociation constant, usually derived from enzyme kinetics or from competition with a known ligand. At hCA II (setting [1]), `COc1ccc2cc3[n+](cc2c1OCCCCCn1cc(COc2ccc4ccc(=O)oc4c2)nn1)CCc1cc2c(cc1-3)OCO2` [Compound 39, 10-Methoxy-9-((5–(4-(((2-oxo-2H-chromen-7-yl)oxy)methyl)-1H-1,2,3-triazol-1-yl)pentyl)oxy)-5,6-dihydro-[1,3]dioxolo[4,5-g]isoquinolino[3,2-a]isoquinolin-7-ium hexafluorophosphate] returned a Ki of over 100000 nM. Moreover, the “increase of fluorescence intensity of the total number of GQ foci” value (“increase” below) with GQ structures is recorded as “not affected”. In addition, the Ki at hCA I (setting [1]) was over 100000 nM. In the assay with F-c-Kit1-T GQ, the “ΔT1/2 F-c-Kit1-T + Hairpin (1:15)” value worked out at 13.2 °C, the “ΔT1/2 F-c-Kit1-T + Hairpin (1:50)” value amounted to 14.0 °C and the “ΔT1/2 F-c-Kit1-T” value stood at 14.6 °C.

`COc1ccc2cc3[n+](cc2c1OCCn1cc(-c2ccc(S(N)(=O)=O)cc2)nn1)CCc1cc2c(cc1-3)OCO2` [Compound 26, 10-Methoxy-9–(2-(4–(4-sulfamoylphenyl)-1H-1,2,3-triazol-1-yl)ethoxy)-5,6-dihydro-[1,3]dioxolo[4,5-g]isoquinolino[3,2-a]isoquinolin-7-ium hexafluorophosphate] showed a Ki at hCA II (setting [2]) of 59.4 ± 3.8 nM. The molecule also yielded a Ki on hCA I (setting [2]) of 581 ± 32.5 nM. In addition, in the assay with F-c-Kit1-T GQ, the “ΔT1/2 F-c-Kit1-T + Hairpin (1:15)” value turned out to be 10.2 °C, the “ΔT1/2 F-c-Kit1-T + Hairpin (1:50)” value worked out at 12.4 °C and the “ΔT1/2 F-c-Kit1-T” value stood at 12.4 °C.

In turn, `COc1ccc2cc3[n+](cc2c1OCCCCn1cc(-c2ccc(S(N)(=O)=O)cc2)nn1)CCc1cc2c(cc1-3)OCO2` [Compound 30, 10-Methoxy-9–(4–(4-(4-sulfamoylphenyl)-1H-1,2,3-triazol-1-yl)butoxy)-5,6-dihydro-[1,3]dioxolo[4,5-g]isoquinolino[3,2-a]isoquinolin-7-ium hexafluorophosphate] registered a Ki at hCA II (setting [2]) of 55.1 ± 3.8 nM. For the same molecule, the “increase” value in the assay on GQ structures is reported as “not affected”. For the same molecule, the Ki on hCA I (setting [2]) was found to be 592 ± 36.3 nM. Moreover, in the assay with F-c-Kit1-T GQ, the “ΔT1/2 F-c-Kit1-T + Hairpin (1:15)” value is 13.8 °C, the “ΔT1/2 F-c-Kit1-T + Hairpin (1:50)” value worked out at 12.6 °C and the “ΔT1/2 F-c-Kit1-T” value was determined as 13.6 °C.

`COc1ccc2cc3[n+](cc2c1OCCCCn1cc(COc2ccc4ccc(=O)oc4c2)nn1)CCc1cc2c(cc1-3)OCO2` [Compound 37, 10-Methoxy-9–(4-(4-(((2-oxo-2H-chromen-7-yl)oxy)methyl)-1H-1,2,3-triazol-1-yl)butoxy)-5,6-dihydro-[1,3]dioxolo[4,5-g]isoquinolino[3,2-a]isoquinolin-7-ium hexafluorophosphate] gave a Ki on hCA II (setting [1]) of over 100000 nM. For the same molecule, the “increase” value in the assay on GQ structures is “around 30%”. The same molecule registered a Ki at hCA I (setting [1]) of over 100000 nM. Moreover, in the assay with F-c-Kit1-T GQ, the “ΔT1/2 F-c-Kit1-T + Hairpin (1:15)” value was found to be 12.8 °C, the “ΔT1/2 F-c-Kit1-T + Hairpin (1:50)” value was 12.6 °C and the “ΔT1/2 F-c-Kit1-T” value came out at 12.0 °C.

Consider `COc1ccc2cc3[n+](cc2c1OCCCn1cc(COc2ccc(S(N)(=O)=O)cc2)nn1)CCc1cc2c(cc1-3)OCO2` [Compound 29, 10-Methoxy-9–(3-(4-((4-sulfamoylphenoxy)methyl)-1H-1,2,3-triazol-1-yl)propoxy)-5,6-dihydro-[1,3]dioxolo[4,5-g]isoquinolino[3,2-a]isoquinolin-7-ium hexafluorophosphate], for which, at hCA II (setting [2]), affinity was put at a Ki of 62.3 ± 4.7 nM. Besides, the affinity at hCA I (setting [2]) corresponds to a Ki of 805 ± 60.8 nM. Further, in the assay on F-c-Kit1-T GQ, the “ΔT1/2 F-c-Kit1-T + Hairpin (1:15)” value turned out to be 12.8 °C, the “ΔT1/2 F-c-Kit1-T + Hairpin (1:50)” value turned out to be 13.2 °C and the “ΔT1/2 F-c-Kit1-T” value is 13.2 °C.

With `COc1ccc2cc3[n+](cc2c1OCCCCCn1cc(-c2ccc(S(N)(=O)=O)cc2)nn1)CCc1cc2c(cc1-3)OCO2` [Compound 32, 10-Methoxy-9-((5–(4-(4-sulfamoylphenyl)-1H-1,2,3-triazol-1-yl)pentyl)oxy)-5,6-dihydro-[1,3]dioxolo[4,5-g]isoquinolino[3,2-a]isoquinolin-7-ium hexafluorophosphate], the Ki on hCA II (setting [2]) came to 15.8 ± 1.2 nM. For the same molecule, the Ki on hCA I (setting [2]) was found to be 574 ± 35.8 nM. Also, in the assay on F-c-Kit1-T GQ, the “ΔT1/2 F-c-Kit1-T + Hairpin (1:15)” value is 15.0 °C, the “ΔT1/2 F-c-Kit1-T + Hairpin (1:50)” value came to 14.6 °C and the “ΔT1/2 F-c-Kit1-T” value was determined as 14.4 °C.

On hCA II (setting [1]), `COc1ccc2cc3[n+](cc2c1OCCCn1cc(COc2ccc4ccc(=O)oc4c2)nn1)CCc1cc2c(cc1-3)OCO2` [Compound 34, 10-Methoxy-9–(3-(4-(((2-oxo-2H-chromen-7-yl)oxy)methyl)-1H-1,2,3-triazol-1-yl)propoxy)-5,6-dihydro-[1,3]dioxolo[4,5-g]isoquinolino[3,2-a]isoquinolin-7-ium hexafluorophosphate] had a Ki of over 100000 nM. Further, the Ki at hCA I (setting [1]) is over 100000 nM. Further, in the assay on F-c-Kit1-T GQ, the “ΔT1/2 F-c-Kit1-T + Hairpin (1:15)” value was 11.4 °C, the “ΔT1/2 F-c-Kit1-T + Hairpin (1:50)” value stood at 11.2 °C and the “ΔT1/2 F-c-Kit1-T” value is 10.6 °C.
